Converted amounts (≈) assume the structure as drawn.
Legend:
Type in all cases: cell-based
[1] = test system: ATCC19606 strain (Acinetobacter baumannii); experiment: Checkerboard antibacterial synergistic activity test with polymyxin E (FIC); design: key: FIC≤0.5 synergy; 0.5–1 additive; 1–2 indifferent; ≥2 antagonism; settings: combined with polymyxin E
Procedure, shortened: (§1)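 Broth checkerboard synergy with colistin; listed dilutions are working solutions, not final well levels. Overnight incubation, 16 h at 37° C.; FIC ≤0.5 denotes synergy, ≥2 antagonism.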

[2] = test system: ATCC25922 strain (Escherichia coli); experiment: as above; design: key: FIC≤0.5 synergy; 0.5–1 additive; 1–2 indifferent; ≥2 antagonism; settings: combined with polymyxin E
Procedure, shortened: as §1

[3] = test system: ATCC13883 strain (Klebsiella pneumoniae); experiment: as above; design: key: FIC≤0.5 synergy; 0.5–1 additive; 1–2 indifferent; ≥2 antagonism; settings: combined with polymyxin E
Procedure, shortened: as §1

[4] = test system: ATCC9027 strain (Pseudomonas aeruginosa); experiment: as above; design: key: FIC≤0.5 synergy; 0.5–1 additive; 1–2 indifferent; ≥2 antagonism; settings: combined with polymyxin E
Procedure, shortened: as §1

[5] = test system: ATCC19606 strain (Acinetobacter baumannii); experiment: Broth microdilution, antibacterial activity of the compound used alone; settings: for MIC: read-out: Antibacterial activity of the compound of Formula I, ATCC19606
Text: (§2) The broth microdilution method was used to test the antibacterial effects of the compounds of the present invention against various Gram-negative bacterial strains when used alone.

[6] = test system: ATCC25922 strain (Escherichia coli); experiment: as above; settings: for MIC: read-out: Antibacterial activity of the compound of Formula I, ATCC25922
Text: as §2

[7] = test system: ATCC13883 strain (Klebsiella pneumoniae); experiment: as above; settings: for MIC: read-out: Antibacterial activity of the compound of Formula I, ATCC13883
Text: as §2

[8] = test system: ATCC9027 strain (Pseudomonas aeruginosa); experiment: as above; settings: for MIC: read-out: Antibacterial activity of the compound of Formula I, ATCC9027
Text: as §2

| Structure (SMILES) | Synergistic activity (FIC value) ATCC19606 [1] | Synergistic activity (FIC value) ATCC25922 [2] | Synergistic activity (FIC value) ATCC13883 [3] | Synergistic activity (FIC value) ATCC9027 [4] | Antibacterial activity of the compound of Formula I, ATCC19606 [5] [µg/mL] | Antibacterial activity of the compound of Formula I, ATCC25922 [6] [µg/mL] | Antibacterial activity of the compound of Formula I, ATCC13883 [7] [µg/mL] | Antibacterial activity of the compound of Formula I, ATCC9027 [8] [µg/mL] | MIC [5] [µg/mL] | MIC [6] [µg/mL] | MIC [7] [µg/mL] | MIC [8] [µg/mL] |
| --- | --- | --- | --- | --- | --- | --- | --- | --- | --- | --- | --- | --- |
| CSc1cc2cc(C)ccn2c1-c1coc(N=C2NCCCN2)n1 [Compound I-192] | 0.5 | 0.38 | 0.38 | 0.63 | 256 | 256 | 256 | 256 |  |  |  |  |
| FC(F)(F)c1cc(-c2nc(N=C3NCCCN3)sc2Cl)ccc1Cl [Compound I-186] | 0.13 | 0.52 | 0.19 | 1.25 | 256 | 256 | 256 | 256 |  |  |  |  |
| NC(N)=Nc1nc(-c2cccc3cccc(Cl)c23)c(Cl)s1 [Compound I-62] | 0.52 | 0.63 | 0.52 | 1.25 | 256 | 128 | 128 | 64 |  |  |  |  |
| COc1ccc(Oc2cccc(-c3csc(N=C4NCCCN4)n3)c2)c(C)c1 [Compound I-154] | 0.38 | 0.04 | 0.19 | 0.04 | 256 | 256 | 256 | 256 |  |  |  |  |
| CC(C)=CCOc1ccccc1-c1csc(N=C(N)N)n1 [Compound I-46] | 0.31 | 0.27 | 0.25 | 0.52 | 256 | 256 | 256 | 256 |  |  |  |  |
| NC(N)=Nc1nc(-c2cccc(Oc3ccc(I)cc3I)c2)cs1 [Compound I-97] | 0.04 | 0.2 | 0.13 | 0.28 | 256 | 256 | 256 | 256 |  |  |  |  |
| NC(N)=Nc1nc(-c2ccccc2[N+](=O)[O-])c[nH]1 [Compound I-20] | 0.75 | 0.5 | 0.63 | 0.56 | 256 | 256 | 256 | 256 |  |  |  |  |
| CC(C)(C)c1cc(-c2csc(NC3=NCCCN3)n2)cc(C(C)(C)C)c1O [Compound I-163] | 0.38 | 0.04 | 0.19 | 0.04 |  |  |  |  | 256 (≈ 662 µM) | 128 (≈ 331 µM) | 128 (≈ 331 µM) | 64 (≈ 166 µM) |
| NC(N)=Nc1nc(-c2ccccc2Cl)c[nH]1 [Compound I-36] | 0.25 | 0.56 | 0.31 | 0.5 | 256 | 128 | 128 | 64 |  |  |  |  |
| Cc1ccc2cccc(-c3nc(N=C(N)N)oc3C)c2c1 [Compound I-58] | 0.28 | 0.5 | 0.25 | 0.63 | 256 | 256 | 256 | 256 |  |  |  |  |
| NC(N)=Nc1nc(-c2cccc3cccnc23)co1 [Compound I-67] | 0.5 | 0.63 | 1.25 | 1.25 | 256 | 256 | 256 | 256 |  |  |  |  |
| COc1ccccc1-c1csc(N=C(N)N)n1 [Compound I-4] | 1.25 | 0.5 | 1.25 | 1.25 | 256 | 256 | 256 | 256 |  |  |  |  |
| NC(N)=Nc1nc(-c2cc(Cl)cc3c2Cc2ccc(Cl)cc2-3)cs1 [Compound I-116] | 0.25 | 0.5 | 0.63 | 1.25 | 256 | 256 | 256 | 256 |  |  |  |  |
| NC(N)=Nc1nc(-c2ccc(Sc3ccccc3)cc2)cs1 [Compound I-107] | 1.25 | 0.53 | 1.25 | 1.25 |  |  |  |  | 256 (≈ 784 µM) | 256 (≈ 784 µM) | 256 (≈ 784 µM) | 256 (≈ 784 µM) |
| Cc1cc(C)c2c(-c3csc(N=C(N)N)n3)cccc2c1 [Compound I-61] | 0.75 | 0.5 | 0.63 | 0.56 | 256 | 256 | 256 | 256 |  |  |  |  |

From patent US20260250257A1, “ANTIBACTERIAL AND SYNERGISTIC ACTIVE COMPOUND AND USE THEREOF” (EAST CHINA UNIVERSITY OF SCIENCE AND TECHNOLOGY, priority 2023, published 2026)
